{"source": "patent US20110052688A1", "about": "“SOLID DISPERSION COMPOSITION” (priority 2006, published 2011)", "assay": "Solubility of fluvastatin sodium in solvents", "format": "physicochemical", "conditions": "in water, alcohols and acetone", "from_the_text": "In one aspect, the solvent-based process uses a solvent, such as water, non-organic solvents, and organic solvents, to dissolve and intimately disperse or dissolve the drug and the one or more pharmaceutical acceptable polymers. The solvent is later removed by evaporation or other ways while the drug/polymer solid dispersion is collected into a solid dosage form. The use of organic solvents may generate hazardous and toxic wastes to the environment. If possible, water is used for water soluble drugs to prepare a dispersion. Other suitable solvents may be, for example, alcohols and acetone for the use of water-insoluble polymers."}
{"compound": "CC(C)n1c(/C=C/C(O)CC(O)CC(=O)O)c(-c2ccc(F)cc2)c2ccccc21", "note": "(stereo not drawn) [fluvastatin sodium, [R*,S*-(E)]=(±)-7-[3-(4-fluorophenyl)-1-(1-methylethyl)-1Hindol-2-yl]-3,5-dihydroxy-6-heptenoic acid]", "values": [{"measurement": "Solubility", "result": "soluble"}]}
